Results on four compounds are retold here after paper PMC3828267 (PLoS ONE, 2013).

Several values for one entry are separate records, joined by “and”; a condition that tells them apart may be missing. Equal entries are not always repeated. Where two headings read alike, the source gives them in different places. Some results are limits rather than exact numbers.

Series [1] addresses T1, α3β4 AChRs (Homo sapiens, UniProt P30926+P32297).
T1 construct: expressed in transfected cells
The series can be described thus: Acute activation, FLEXStation membrane potential dye, α3β4 cell line. The format is cell-based. The method, then:
(§1) The parental cell line used for transfections was tsA201, derived from the human embryonic kidney cell line (HEK) 293 [33]. […] The cell line permanently expressing α3β4 AChRs has been described, [34]. A stable cell line expressing functional α7 AChRs was prepared by initially transfecting the tsA201 cell line with cDNA for α7 and subsequently transfecting with cDNA for the AChR-selective chaperone, human RIC-3.
(§2) Responses to nicotinic agonists were determined using a FLEXStation microplate fluorometer (Molecular Devices, Sunnyvale, CA) as described. For cell lines expressing α4β2 and α3β4 AChRs, the cells were plated at 10^5 cells/ml (100 µl/well) in black-walled clear-bottom 96 well plates (Costar, Fisher Scientific, Pittsbugh, PA), and incubated for 48 hours prior to assaying responses to various nicotinic agonists. The α7/RIC-3 expressing cells were plated at 5×10^5/ml in black-walled clear-bottom 96 well BioCoat plates (BD Biosciences, Franklin Lakes, NJ) in the continued presence of VPA and PBA, with the addition of 5% human AB serum (Pel-Freez Biologicals, Rogers, AR) to further increase expression of α7 [35]. The cells were then grown for 24 hours prior to the assay.
(§3) To measure responses to various nicotinic agonists, 100 µl of a fluorescent dye which is sensitive to changes in membrane potential (Molecular Devices) was added to the wells. The dye was prepared according to the manufacturer’s instructions, with the addition of atropine (0.5 µM) to block muscarinic responses. The plates were then incubated at 37°C for one hour prior to the assay. Serial dilutions of agonists were then prepared in Hanks Balanced Salt Solution (HBSS) in V-shaped 96-well plates (Fisher Scientific Co, Pittsburgh, PA). Fluorescent responses were measured in the FLEX Station at 25°C, with an excitation wavelength of 530 nm and an emission wavelength of 565 nm. Various agonists (50 µl) were added after the first 20 seconds and responses were followed for 60–120 seconds.
(§4) Data were graphed using GraphPad Prism software. Non-linear models (sigmoidal dose-response with variable slope or two site competition) were used to fit the concentration response curves. The EC50 and IC50 were calculated from the curves. Kaleidagraph software was used to determine Hill slopes and standard errors of the EC50 and IC50.

The target of series [2] is T2, human α4β2 AChRs (Homo sapiens, UniProt P17787+P43681).
T2 construct: expressed in transfected cells
T2 sequence (P43681 29-627 limits assumed): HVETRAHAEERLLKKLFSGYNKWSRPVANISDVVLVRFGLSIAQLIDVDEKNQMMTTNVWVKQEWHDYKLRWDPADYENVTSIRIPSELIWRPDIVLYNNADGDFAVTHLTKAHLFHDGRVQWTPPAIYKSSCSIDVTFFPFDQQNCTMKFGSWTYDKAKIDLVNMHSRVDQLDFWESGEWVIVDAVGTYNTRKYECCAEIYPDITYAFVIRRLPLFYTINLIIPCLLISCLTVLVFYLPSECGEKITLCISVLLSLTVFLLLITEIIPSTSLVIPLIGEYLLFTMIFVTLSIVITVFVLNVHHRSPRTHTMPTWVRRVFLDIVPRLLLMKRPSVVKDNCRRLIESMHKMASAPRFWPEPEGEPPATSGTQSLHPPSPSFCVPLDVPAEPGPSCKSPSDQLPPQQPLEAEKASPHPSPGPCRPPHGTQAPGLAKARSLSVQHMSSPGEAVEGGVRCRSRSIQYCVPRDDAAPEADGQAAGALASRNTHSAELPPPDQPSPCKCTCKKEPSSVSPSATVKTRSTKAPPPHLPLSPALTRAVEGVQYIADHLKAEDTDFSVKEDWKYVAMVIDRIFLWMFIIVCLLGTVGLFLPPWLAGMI
T2 sequence (P17787 26-502): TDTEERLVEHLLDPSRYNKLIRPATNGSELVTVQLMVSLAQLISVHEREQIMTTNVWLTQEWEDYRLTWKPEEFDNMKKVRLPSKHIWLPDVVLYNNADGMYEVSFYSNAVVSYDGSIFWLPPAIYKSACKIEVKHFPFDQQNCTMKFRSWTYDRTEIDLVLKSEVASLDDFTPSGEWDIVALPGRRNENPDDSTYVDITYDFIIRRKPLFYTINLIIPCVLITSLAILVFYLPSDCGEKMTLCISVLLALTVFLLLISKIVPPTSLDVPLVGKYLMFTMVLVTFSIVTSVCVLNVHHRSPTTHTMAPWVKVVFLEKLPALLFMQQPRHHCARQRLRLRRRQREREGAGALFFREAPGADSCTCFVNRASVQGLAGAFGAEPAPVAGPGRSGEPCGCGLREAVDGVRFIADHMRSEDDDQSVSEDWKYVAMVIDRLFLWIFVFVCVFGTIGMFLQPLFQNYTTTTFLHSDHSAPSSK
The series can be described thus: Acute activation, FLEXStation membrane potential dye, α4β2 cell line. The format is cell-based. The following applies: for Agonist type (full or partial): α4β2, mixture of stoichiometries. On the procedure: as §1, §2, §3, §4

The conditions of series [3]: cited from earlier work.
The target in series [4] is T2, human α4β2 AChRs. The series can be described thus: Chronic desensitization (16 h agonist, then ACh response) and calculated smoldering activation, α4β2 cell line. The class given is cell-based. The following applies: for Emax at 1 µM: 1 µM varenicline, read-out: Smoldering activation, % of the maximum response; for AChRs desensitized: varenicline 1 µM; for Extent of desensitization of α4β2 AChRs to ACh: prolonged exposure, up to high concentrations. On the procedure:
(§5) To measure desensitization, plates were prepared as for agonist assays. Sixteen hours prior to the assay, serial dilutions of agonists, prepared in regular growth medium, were added to the plates. One hour before the assay, the membrane potential-sensitive fluorescent dye with 0.5 µM atropine was added to the wells. […] Each data point represents the average of peak values for individual dose response curves from 4–8 wells.
as §4
(§6) Responses for the three different AChRs are shown in Figures 3, 4, 5, 6, along with the dose response curves for activation (the same as shown in Figure 2). The range of concentrations at which both sustained activation and desensitization can occur (“smoldering activation”) was calculated by multiplying the acute response to agonists at each concentration by the fractional response remaining after desensitization.

Series [5] addresses T1, α3β4 AChRs. Put plainly: Chronic desensitization (16 h agonist, then ACh response) and calculated smoldering activation, α3β4 cell line. The class given is cell-based. The following applies: for Hill (desensitization) / Intercept of Activation and Desensitization Curves: α3β4: 1.0 mM ACh. On the procedure: as §5, §4, §6
Series [6] addresses T3, α7 AChRs (Homo sapiens, UniProt P36544). Put plainly: Acute activation, FLEXStation membrane potential dye, α7/RIC-3 cell line. The format is cell-based. On the set-up: expressed in transfected cells; grown in VPA and PBA. The method, then:
as §1, §2, §3, §4

Series [7] concerns the target T3, α7 AChRs. The series can be described thus: Chronic desensitization (16 h agonist, then ACh response) and calculated smoldering activation, α7 cell line. The class given is cell-based. Set-up: expressed in transfected cells; grown in VPA and PBA. The following applies: for Hill (desensitization) / Intercept of Activation and Desensitization Curves: α7: 10 µM ACh. The method, then: as §5, §4, §6

The conditions of series [8]: cited from earlier work. The source holds these as a separate data set.
The next series deals with (α4β2)2α4 AChRs. The following applies: (α4β2)2α4, concatenated AChRs in Xenopus oocytes; cited from earlier work.
The next series concerns the target T4, (α4β2)2β2 AChRs (Homo sapiens, UniProt P17787+P43681).
T4 construct: expressed in transfected cells
The following applies: (α4β2)2β2, concatenated AChRs in Xenopus oocytes; cited from earlier work.

The mark [9] stands for this setting: α4β2, higher sensitivity component or monophasic curve.
[10] abbreviates: α4β2, lower sensitivity component.
[11] abbreviates: α4β2: 3 µM ACh ((α4β2)2β2 stoichiometry), centre of smoldering activation.
Where [12] appears, read: α4β2: 3 µM ACh, first component.
The mark [13] stands for this setting: α4β2: 100 µM ACh (both stoichiometries).
Setting [14] is: α4β2: 100 µM ACh, first component.

T1 sequence (P32297 32-505): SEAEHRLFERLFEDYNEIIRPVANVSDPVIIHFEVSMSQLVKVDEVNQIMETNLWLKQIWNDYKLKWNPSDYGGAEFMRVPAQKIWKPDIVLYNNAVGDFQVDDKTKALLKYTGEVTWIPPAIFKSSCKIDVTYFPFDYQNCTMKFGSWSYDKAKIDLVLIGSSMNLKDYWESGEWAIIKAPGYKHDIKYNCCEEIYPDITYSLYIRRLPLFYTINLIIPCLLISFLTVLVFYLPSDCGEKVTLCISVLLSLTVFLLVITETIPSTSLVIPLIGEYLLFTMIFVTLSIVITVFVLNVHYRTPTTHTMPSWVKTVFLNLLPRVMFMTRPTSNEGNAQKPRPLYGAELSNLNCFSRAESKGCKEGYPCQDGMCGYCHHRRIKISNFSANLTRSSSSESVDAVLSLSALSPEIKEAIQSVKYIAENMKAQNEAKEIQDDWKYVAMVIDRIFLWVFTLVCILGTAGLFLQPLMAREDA
T1 sequence (P30926 22-498): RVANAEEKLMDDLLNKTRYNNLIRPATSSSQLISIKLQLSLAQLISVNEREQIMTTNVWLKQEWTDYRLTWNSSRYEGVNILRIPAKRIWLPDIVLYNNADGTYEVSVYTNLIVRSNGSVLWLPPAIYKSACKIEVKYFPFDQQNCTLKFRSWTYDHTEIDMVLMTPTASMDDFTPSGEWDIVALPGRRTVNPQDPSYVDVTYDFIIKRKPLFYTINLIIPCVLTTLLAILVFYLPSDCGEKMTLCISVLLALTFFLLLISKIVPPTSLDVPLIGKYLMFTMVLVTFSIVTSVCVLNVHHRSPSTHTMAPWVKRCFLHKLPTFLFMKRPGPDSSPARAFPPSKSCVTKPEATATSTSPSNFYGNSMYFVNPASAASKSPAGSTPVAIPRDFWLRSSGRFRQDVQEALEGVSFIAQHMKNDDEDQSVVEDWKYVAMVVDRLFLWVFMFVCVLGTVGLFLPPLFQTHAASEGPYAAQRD
T3 sequence (P36544 23-502): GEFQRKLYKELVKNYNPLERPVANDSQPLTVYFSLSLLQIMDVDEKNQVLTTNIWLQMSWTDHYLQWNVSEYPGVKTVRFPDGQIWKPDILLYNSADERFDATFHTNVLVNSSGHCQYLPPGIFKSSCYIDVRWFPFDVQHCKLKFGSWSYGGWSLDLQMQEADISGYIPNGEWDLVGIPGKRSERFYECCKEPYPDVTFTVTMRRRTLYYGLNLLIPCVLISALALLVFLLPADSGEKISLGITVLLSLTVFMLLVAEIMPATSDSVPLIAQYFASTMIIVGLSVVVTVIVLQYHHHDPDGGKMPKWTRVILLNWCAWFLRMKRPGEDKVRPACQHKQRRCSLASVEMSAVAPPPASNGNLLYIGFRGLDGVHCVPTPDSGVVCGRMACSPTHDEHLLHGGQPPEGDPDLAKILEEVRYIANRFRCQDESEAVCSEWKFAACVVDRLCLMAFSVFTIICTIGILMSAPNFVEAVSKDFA
T4 sequence (P43681 29-627 limits assumed): as the sequence (P43681 29-627 limits assumed) above
T4 sequence (P17787 26-502): as the sequence (P17787 26-502) above

Consider `c1cnc2cc3c(cc2n1)[C@@H]1CNC[C@H]3C1` [Varenicline, varenicline], for which the “Hill (activation)” value at α3β4 AChRs [1] (α3β4) turned out to be 1.4; on human α4β2 AChRs [2] (setting [9]), 1.1; on human α4β2 AChRs [2] (setting [10]) it was 1.8; on α7 AChRs [6] (α7) it was 3.5. Also, at human α4β2 AChRs [2], the “Agonist type (full or partial)” value is “partial agonists”. In addition, the Peak levels in series [3] (after 14 days on standard dose of 1 mg twice daily) is 0.48 µM. Besides, the Peak blood levels in series [3] (humans, after a 1 mg dose) is 0.1 µM. In [3] (patients on therapeutic doses), the “Levels reached in patients” value is 400 nM. Further, the Emax at 1 µM was 23% on human α4β2 AChRs [4] ((α4β2)2α4 AChRs) and 4.3% on human α4β2 AChRs [4] ((α4β2)2β2 AChRs). In addition, the AChRs desensitized is listed as roughly 50% at human α4β2 AChRs [4] ((α4β2)2α4 AChRs) and greater than 90% at human α4β2 AChRs [4] ((α4β2)2β2 AChRs). The “Extent of desensitization of α4β2 AChRs to ACh” value at human α4β2 AChRs [4] is “fully desensitizing”. In addition, the “Intercept of Activation and Desensitization Curves” value (“Intercept” below) at human α4β2 AChRs [4] (setting [11]) is 0.16 µM; at human α4β2 AChRs [4] (setting [13]) it was 0.93 µM; on α3β4 AChRs [5] it was 2.1 µM; on α7 AChRs [7], 0.4 µM. Also, the “Hill (desensitization)” value at human α4β2 AChRs [4] (setting [12]) is −0.6; on human α4β2 AChRs [4] (setting [14]) it was −1.0; at α3β4 AChRs [5] it was −1.1; at α7 AChRs [7], −2.6.

For the compound `CC(=O)OCC[N+](C)(C)C` [ACh, acetylcholine], the “Hill (activation)” value on α3β4 AChRs [1] (α3β4) is 1.8; at human α4β2 AChRs [2] (setting [9]), 1.5; on human α4β2 AChRs [2] (setting [10]) it was 1.3; on α7 AChRs [6] (α7) it was 2.4. Also, the “Amplitude of response to saturating concentration” value on α3β4 AChRs [1] (α3β4, saturating ACh (1.0 mM)) was 161,000+/−14,000 relative fluorescence units; on human α4β2 AChRs [2] (α4β2, saturating ACh (300 µM)), 167,000+/−18,000 relative fluorescence units; on α7 AChRs [6] (α7, saturating ACh (10 µM)) it was 54,000+/−3000 relative fluorescence units and 54,00+/−3000 relative fluorescence units. For the same compound, the “Agonist type (full or partial)” value at human α4β2 AChRs [2] is reported as “full agonists”. Besides, the “Time to maximum response after agonist application” value at α7 AChRs [6] (α7, saturating ACh) was no more than 5 s.

As for `CN1CCC[C@H]1c1cccnc1` [Nicotine, nicotine], the “Hill (activation)” value on α3β4 AChRs [1] (α3β4) amounted to 1.1; on human α4β2 AChRs [2] (setting [9]), 1.8; at human α4β2 AChRs [2] (setting [10]), 2.5; on α7 AChRs [6] (α7) it was 1.7. In addition, the “Agonist type (full or partial)” value at human α4β2 AChRs [2] was “full agonists”. Besides, the Emax at 0.1 µM on human α4β2 AChRs [4] (read-out: Calculated smoldering activation, % of maximum response, (α4β2)2α4 stoichiometry, 0.1 µM nicotine) was 18%; at human α4β2 AChRs [4] (read-out: Calculated smoldering activation, % of maximum response, (α4β2)2β2 stoichiometry, 0.1 µM nicotine) it was 6%. The Emax at […] at human α4β2 AChRs [4] (read-out: Calculated smoldering response, % of maximum response, (α4β2)2α4 stoichiometry, nicotine concentration of […]) was 54%. Besides, the “Intercept” value on human α4β2 AChRs [4] (setting [11]) was 0.13 µM; at human α4β2 AChRs [4] (setting [13]) it was 1.82 µM; on α3β4 AChRs [5], 8.7 µM; on α7 AChRs [7], 1.7 µM. Moreover, the “Hill (desensitization)” value is given as −1.0 at human α4β2 AChRs [4] (setting [12]), −1.2 at human α4β2 AChRs [4] (setting [14]), −0.9 at α3β4 AChRs [5] and −3.2 at α7 AChRs [7]. In series [8], the “Concentrations found in the blood of smokers” value was 58 to 340 nM.

A word on the EC50: it is the concentration needed to bring the measured effect to its halfway point. A high value points to a less potent agent. The term IC50 denotes the concentration at which inhibition is half-maximal. `O=c1cccc2n1C[C@@H]1CNC[C@H]2C1` [Cytisine, cytisine]: the EC50 at α3β4 AChRs [1] came to 7500 ± 1100 nM; on human α4β2 AChRs [2] (Activation EC50, α4β2 cell line, mixed stoichiometries, higher sensitivity component where two-site fit, else monophasic) it was 5500 ± 800 nM; on α7 AChRs [6], 2000 ± 60 nM. Besides, the figures for the “Agonist type (full or partial)” value at α3β4 AChRs [1] (α3β4), on human α4β2 AChRs [2] and at α7 AChRs [6] (α7) were “full agonist”, “partial agonist” and “full agonist”, respectively. Also, the “Efficacy (%) (relative to ACh)” value at α3β4 AChRs [1] (α3β4) was 100%; at human α4β2 AChRs [2] (α4β2), 34%; at α7 AChRs [6] (α7), 100%. The “Hill (activation)” value at α3β4 AChRs [1] (α3β4) is on record as 1.3; on human α4β2 AChRs [2] (setting [9]) it was 0.9; on α7 AChRs [6] (α7) it was 4.3. Moreover, the Agonist type result was “partial agonist” in the series with (α4β2)2α4 AChRs and “inactive” on (α4β2)2β2 AChRs. The 50% inhibitory concentration (IC50) at human α4β2 AChRs [4] (Desensitization IC50, α4β2: 3 µM ACh, overnight (16 h) agonist, first (more sensitive) component) was 1 ± 0.5 nM; at human α4β2 AChRs [4] (Desensitization IC50, α4β2: 3 µM ACh, overnight agonist, second component), 250 ± 100 nM; on human α4β2 AChRs [4] (Desensitization IC50, α4β2: 100 µM ACh, overnight (16 h) agonist, first (more sensitive) component) it was 3 ± 0.3 nM; on human α4β2 AChRs [4] (Desensitization IC50, α4β2: 100 µM ACh, overnight agonist, second component), 20000 nM; at α3β4 AChRs [5] it was 1300 ± 500 nM; on α7 AChRs [7], 4200 ± 740 nM. In addition, on human α4β2 AChRs [4], the “Extent of desensitization of α4β2 AChRs to ACh” value is on record as “fully desensitizing”. Further, the “Concentration from which the desensitization dose response curve shows a plateau” value on human α4β2 AChRs [4] (α4β2, assayed with 100 µM ACh) was “above 10 nM”. For the same compound, the “Intercept” value at human α4β2 AChRs [4] (setting [11]) is on record as 0.45 µM; at human α4β2 AChRs [4] (setting [13]), 0.74 µM; on α3β4 AChRs [5] it was 4.1 µM; on α7 AChRs [7] it was 2.1 µM. Further, the “Hill (desensitization)” value is recorded as −1.1 at human α4β2 AChRs [4] (setting [12]); −1.1 on human α4β2 AChRs [4] (α4β2: 3 µM ACh, second component); −1.2 on human α4β2 AChRs [4] (setting [14]); −0.8 on human α4β2 AChRs [4] (α4β2: 100 µM ACh, second component); −0.6 at α3β4 AChRs [5]; −1.4 on α7 AChRs [7].
